Assay [1] has as its system CD33^+ MDSC. The experiment in a line: Reversal of suppressive function of tumor cell line-induced CD33+ MDSC by drugs. In kind it is cell-based, human. The conditions noted are these: drug-treated CD33+ MDSC.
Assay [2] deals with CD11b^+ MDSC. In words: qRT-PCR gene expression in treated CD11b+ MDSC. The following applies: treated vs untreated CD11b+ MDSC, mRNA. In kind it is cell-based, human. (Quantitative PCR measures a nucleic acid by following its amplification.)
The subject of assay [3] is CD33^+ MDSC. In words: qRT-PCR gene expression in treated CD33+ MDSC. The format is cell-based, human. The conditions noted are these: treated vs untreated CD33+ MDSC, mRNA.
Assay [4] has as its system CD11b^+ MDSC. The experiment in a line: Functional inhibition of tumor cell line-induced CD11b+ MDSC by drugs. The following applies: drug-treated CD11b+ MDSC.
Assay [5] concerns CD33^+ MDSC. The experiment in a line: Suppression Assay in presence or absence of specific inhibitors of MDSC suppressive mechanisms. In kind it is cell-based, human. The following applies: tumor cell line-induced CD33+ MDSC, CD3/CD28-stimulated autologous T cells, with inhibitor. The procedure: Further characterization of tumor-induced canonical CD33^+ MDSC subset by analysis of the expression of putative MDSC suppression genes was performed. For these studies, expression of putative suppression genes was measured in tumor cell line-induced MDSC, including those induced by SCCL-MT1 HNSCC cell line and those induced by 4-998 osteogenic sarcoma, DU 145 prostate carcinoma, CAKI-1 renal cell carcinoma, SK-OV-3 ovarian carcinoma, and SW 608 and SW 732 colorectal adenocarcinoma cell lines (FIG. 6A), and compared to expression levels in normal, non-suppressive CD33^+ myeloid cells from medium only cultures. […] To determine the dominant mechanism of T cell suppression by this canonical CD33^+ MDSC subset, suppression assays were repeated in the presence or absence of specific inhibitors of ARG-1 (nor-NOHA), iNOS (L-NMMA), NOX2 (apocynin), VEGF (neutralizing antibody Avastin), or TGFβ1 (SB431542 or neutralizing antibody 1D11).

“Also recorded” adds a separate entry of the source.

For `CC1=C(/C=C/C(C)=C/C=C/C(C)=C/C(=O)O)C(C)(C)CCC1` [ATRA], the “CD33+ MDSC suppressive function” value with CD33^+ MDSC [1] is on record as “Inhibition; also recorded: Reversal”. In the assay with CD11b^+ MDSC [2], the C/EBPβ expression result is “decreased”, the HIF1α expression entry is “no change” and the STAT3 expression result is listed as “no change”. Besides, in the assay with CD33^+ MDSC [3], the HIF1α expression entry was “decreased” and the STAT3 expression entry is “decreased”. Besides, the “CD11b+ MDSC suppressive function” value in the assay with CD11b^+ MDSC [4] is “Functional inhibition”.
Turning to `COc1cc(C(C)=O)ccc1O` [apocynin], in the assay on CD33^+ MDSC [5], the “suppression of T cell proliferation by CD33+ MDSC” value is given as “statistically significant decreases in suppression”.
On the same count and under the same terms, the value for `N=C(NO)NCC[C@H](N)C(=O)O` [nor-NOHA] was “statistically significant decreases in suppression”.
As for lipopolysaccharide, in the assay with CD11b^+ MDSC [2], the ARG-1 expression result is reported as “increased expression”, the C/EBPβ expression entry is “further up-regulation”, the HIF1α expression entry was “further up-regulation” and the “NOX2-component NCF1 expression” value is “increased expression”. Moreover, in the assay on CD11b^+ MDSC [2], the STAT3 expression result is given as “further up-regulation” and the iNOS expression result is “increased expression”. Besides, in the assay on CD33^+ MDSC [3], the ARG-1 expression result is recorded as “increased expression”, the C/EBPβ expression result is on record as “further up-regulation”, the HIF1α expression result is on record as “further up-regulation” and the “NOX2-component NCF1 expression” value is given as “increased expression”. Also, in the assay with CD33^+ MDSC [3], the STAT3 expression result is reported as “further up-regulation” and the iNOS expression entry was “increased expression”.
